Columns and labels:
Escherichia coli = assay: microbe, parasite or virus in culture; conditions: ATCC 25922, 18 h, ASSAY_TEST Inhibition of Bacterial Growth, detection method Absorption (OD600), MEDIA CAMHB, plate type 384well, NBS, CORNING #3640
Description: Antibacterial activity against Escherichia coli ATCC 25922 (CO-ADD:GN_001); MIC in CAMBH media using NBS plates, by OD(600)

Klebsiella pneumoniae = assay: microbe, parasite or virus in culture; conditions: ATCC 700603, 18 h, ASSAY_TEST Inhibition of Bacterial Growth, detection method Absorption (OD600), MEDIA CAMHB, plate type 384well, NBS, CORNING #3640
Description: Antibacterial activity against Klebsiella pneumoniae MDR ATCC 70063 (CO-ADD:GN_003); MIC in CAMBH media using NBS plates, by OD(600)

Acinetobacter baumannii = assay: microbe, parasite or virus in culture; conditions: ATCC 19606, 18 h, ASSAY_TEST Inhibition of Bacterial Growth, detection method Absorption (OD600), MEDIA CAMHB, plate type 384well, NBS, CORNING #3640
Description: Antibacterial activity against Acinetobacter baumannii ATCC 19606 (CO-ADD:GN_034); MIC in CAMBH media using NBS plates, by OD600

Candida albicans = assay: microbe, parasite or virus in culture; conditions: ATCC 90028, ASSAY_TEST Inhibition of Fungal Growth, detection method Absorption (OD530), plate type 384well, NBS, CORNING #3640
Description: Antifungal activity against Candida albicans ATCC 90028 (CO-ADD:FG_001); MIC in YNB media using NBS plates, by OD630

Pseudomonas aeruginosa [1] = assay: microbe, parasite or virus in culture; conditions: ATCC 27853, 18 h, ASSAY_TEST Inhibition of Bacterial Growth, detection method Absorption (OD600), MEDIA CAMHB, plate type 384well, NBS, CORNING #3640
Description: Antibacterial activity against Pseudomonas aeruginosa ATCC 27853 (CO-ADD:GN_042); MIC in CAMBH media using NBS plates, by OD(600)

HEK293 = assay: cells; format: functional, Homo sapiens, ATCC CRL1573; conditions: Homo sapiens, ATCC CRL1573, HEK293; ASSAY_TEST Inhibition of Cell Viability; detection method Resazurin; Fluorescence (ex560/em590); MEDIA DMEM with 10% FBS; plate type 384well; TC; CORNING #3712; time 18 hr; read-out: CC50
Staphylococcus aureus = assay: microbe, parasite or virus in culture; conditions: ATCC 43300, 18 h, ASSAY_TEST Inhibition of Bacterial Growth, detection method Absorption (OD600), MEDIA CAMHB, plate type 384well, NBS, CORNING #3640
Description: Antibacterial activity against Staphylococcus aureus MRSA ATCC 43300 (CO-ADD:GP_020); MIC in CAMBH media, using NBS plates, by OD(600)

Pseudomonas aeruginosa [2] = assay: Antibacterial activity against Pseudomonas aeruginosa PAO397 [PAO1 d(mexAB-oprM) d(mexCD-oprJ) d(mexEF-oprN) d(mexJKL) d(mexXY) d(opmH)] (CO-ADD:GN_211); MIC in CAMBH media using NBS plates, by OD(600); format: functional; conditions: ASSAY_TEST Inhibition of Bacterial Growth, detection method Absorption (OD600), MEDIA CAMHB, plate type 384well, CORNING #3640, time 18 hr

Description for Cryptococcus neoformans: Antifungal activity against Cryptococcus neoformans H99 ATCC 208821 (CO-ADD:FG_002); MIC in YNB media using NBS plates, by Resazurin OD(600-570)

CC1(C)C[C@H]1C(=O)N/C(=C\CCCCSC[C@@H](N)C(=O)O)C(=O)O
> 20 µM: MIC (Escherichia coli) | MIC (Klebsiella pneumoniae) | MIC (Cryptococcus neoformans) | MIC (Acinetobacter baumannii) | MIC (Candida albicans) | MIC (Pseudomonas aeruginosa [1]) | CC50 (HEK293) | MIC (Staphylococcus aureus) | MIC (Pseudomonas aeruginosa [2])

CCc1cc(CCC(=O)Nc2ccccc2O)c(O)nc1C
> 20 µM: MIC (Escherichia coli) | MIC (Klebsiella pneumoniae) | MIC (Cryptococcus neoformans) | MIC (Acinetobacter baumannii) | MIC (Candida albicans) | MIC (Pseudomonas aeruginosa [1]) | CC50 (HEK293) | MIC (Staphylococcus aureus) | MIC (Pseudomonas aeruginosa [2])

CC[C@H]1OC(=O)[C@H](C)[C@@H](O[C@H]2C[C@@](C)(OC)[C@@H](O)[C@H](C)O2)[C@H](C)[C@@H](O[C@@H]2O[C@H](C)C[C@H](N(C)C)[C@H]2O)[C@](C)(O)C[C@@H](C)C(=O)[C@H](C)[C@@H](O)[C@]1(C)O [ERYTHROMYCIN]
20 µM: MIC (Pseudomonas aeruginosa [1]) | MIC (Pseudomonas aeruginosa [2])
> 20 µM: MIC (Escherichia coli) | MIC (Klebsiella pneumoniae) | MIC (Cryptococcus neoformans) | MIC (Acinetobacter baumannii) | MIC (Candida albicans) | CC50 (HEK293) | MIC (Staphylococcus aureus)

O=C(Nc1nnc(-c2ccccc2)o1)c1ccc(F)cc1
20 µM: MIC (Cryptococcus neoformans) | MIC (Staphylococcus aureus)
> 20 µM: MIC (Escherichia coli) | MIC (Klebsiella pneumoniae) | MIC (Acinetobacter baumannii) | MIC (Candida albicans) | MIC (Pseudomonas aeruginosa [1]) | CC50 (HEK293) | MIC (Pseudomonas aeruginosa [2])

O=S(=O)(Nc1ccc(O)cc1)c1cccc2cccnc12
> 20 µM: MIC (Escherichia coli) | MIC (Klebsiella pneumoniae) | MIC (Cryptococcus neoformans) | MIC (Acinetobacter baumannii) | MIC (Candida albicans) | MIC (Pseudomonas aeruginosa [1]) | CC50 (HEK293) | MIC (Staphylococcus aureus) | MIC (Pseudomonas aeruginosa [2])

O=C(Nc1[nH]c(=O)ncc1F)c1ccccc1
> 20 µM: MIC (Escherichia coli) | MIC (Klebsiella pneumoniae) | MIC (Cryptococcus neoformans) | MIC (Acinetobacter baumannii) | MIC (Candida albicans) | MIC (Pseudomonas aeruginosa [1]) | CC50 (HEK293) | MIC (Staphylococcus aureus) | MIC (Pseudomonas aeruginosa [2])

Nc1nc(C(F)(F)F)cc2c1[nH]c(=O)n2Cc1ccccc1
> 20 µM: MIC (Escherichia coli) | MIC (Klebsiella pneumoniae) | MIC (Cryptococcus neoformans) | MIC (Acinetobacter baumannii) | MIC (Candida albicans) | MIC (Pseudomonas aeruginosa [1]) | CC50 (HEK293) | MIC (Staphylococcus aureus) | MIC (Pseudomonas aeruginosa [2])

CN(C)CCNC(=O)c1cccc2cccnc12
> 20 µM: MIC (Escherichia coli) | MIC (Klebsiella pneumoniae) | MIC (Cryptococcus neoformans) | MIC (Acinetobacter baumannii) | MIC (Candida albicans) | MIC (Pseudomonas aeruginosa [1]) | CC50 (HEK293) | MIC (Staphylococcus aureus) | MIC (Pseudomonas aeruginosa [2])

O=S(=O)(NCB(O)O)c1ccc(-c2nnn[nH]2)cc1C(F)(F)F
> 20 µM: MIC (Escherichia coli) | MIC (Klebsiella pneumoniae) | MIC (Cryptococcus neoformans) | MIC (Acinetobacter baumannii) | MIC (Candida albicans) | MIC (Pseudomonas aeruginosa [1]) | CC50 (HEK293) | MIC (Staphylococcus aureus) | MIC (Pseudomonas aeruginosa [2])

CNCC(=O)OCc1cccnc1N(C)C(=O)OC(C)[n+]1cnn(C[C@](O)(c2cc(F)ccc2F)[C@@H](C)c2nc(-c3ccc(C#N)cc3)cs2)c1 (stereo partly specified) [ISAVUCONAZONIUM]
≤ 0.156 µM: MIC (Candida albicans)
> 20 µM: MIC (Escherichia coli) | MIC (Klebsiella pneumoniae) | MIC (Acinetobacter baumannii) | MIC (Pseudomonas aeruginosa [1]) | CC50 (HEK293) | MIC (Staphylococcus aureus) | MIC (Pseudomonas aeruginosa [2])
2.5 µM: MIC (Cryptococcus neoformans)

O=C(Nc1ccc(Cl)c(C(F)(F)F)c1)C(CCCl)C(=O)Nc1ccc(Cl)c(C(F)(F)F)c1
> 20 µM: MIC (Escherichia coli) | MIC (Klebsiella pneumoniae) | MIC (Cryptococcus neoformans) | MIC (Acinetobacter baumannii) | MIC (Candida albicans) | MIC (Pseudomonas aeruginosa [1]) | CC50 (HEK293) | MIC (Staphylococcus aureus) | MIC (Pseudomonas aeruginosa [2])

N[C@H](CCC(=O)N[C@@H](Cc1c[nH]c2ccccc12)C(=O)O)C(=O)O [GOLOTIMOD]
> 20 µM: MIC (Escherichia coli) | MIC (Klebsiella pneumoniae) | MIC (Cryptococcus neoformans) | MIC (Acinetobacter baumannii) | MIC (Candida albicans) | MIC (Pseudomonas aeruginosa [1]) | CC50 (HEK293) | MIC (Staphylococcus aureus) | MIC (Pseudomonas aeruginosa [2])

N[C@@H]1CN(c2c(F)cc3c(=O)c(C(=O)O)cn([C@@H]4C[C@@H]4F)c3c2Cl)CC12CC2 [SITAFLOXACIN ANHYDROUS]
≤ 0.156 µM: MIC (Escherichia coli) | MIC (Pseudomonas aeruginosa [2])
0.312 µM: MIC (Staphylococcus aureus)
2.5 µM: MIC (Pseudomonas aeruginosa [1])
5 µM: MIC (Klebsiella pneumoniae) | MIC (Acinetobacter baumannii)
> 20 µM: MIC (Cryptococcus neoformans) | MIC (Candida albicans) | CC50 (HEK293)

COc1ccc(C2CNC(=O)C2)cc1OC1CCCC1 (stereo unspecified) [ROLIPRAM]
> 20 µM: MIC (Escherichia coli) | MIC (Klebsiella pneumoniae) | MIC (Cryptococcus neoformans) | MIC (Acinetobacter baumannii) | MIC (Candida albicans) | MIC (Pseudomonas aeruginosa [1]) | CC50 (HEK293) | MIC (Staphylococcus aureus) | MIC (Pseudomonas aeruginosa [2])
